The text below walks through data of US20150291514A1, “N-Aminosulfonyl Benzamides” (Pfizer Limited, priority 2012, published 2015).

Structures are written as SMILES. Where a name gives a salt, the structure may show the parent alone.

For the experiment, the target named is T1, Nav1.7 (or SCN9A) channel (Homo sapiens, UniProt Q15858).
T1 construct: expressed in transfected cells
T1 sequence (Q15858 whole entry): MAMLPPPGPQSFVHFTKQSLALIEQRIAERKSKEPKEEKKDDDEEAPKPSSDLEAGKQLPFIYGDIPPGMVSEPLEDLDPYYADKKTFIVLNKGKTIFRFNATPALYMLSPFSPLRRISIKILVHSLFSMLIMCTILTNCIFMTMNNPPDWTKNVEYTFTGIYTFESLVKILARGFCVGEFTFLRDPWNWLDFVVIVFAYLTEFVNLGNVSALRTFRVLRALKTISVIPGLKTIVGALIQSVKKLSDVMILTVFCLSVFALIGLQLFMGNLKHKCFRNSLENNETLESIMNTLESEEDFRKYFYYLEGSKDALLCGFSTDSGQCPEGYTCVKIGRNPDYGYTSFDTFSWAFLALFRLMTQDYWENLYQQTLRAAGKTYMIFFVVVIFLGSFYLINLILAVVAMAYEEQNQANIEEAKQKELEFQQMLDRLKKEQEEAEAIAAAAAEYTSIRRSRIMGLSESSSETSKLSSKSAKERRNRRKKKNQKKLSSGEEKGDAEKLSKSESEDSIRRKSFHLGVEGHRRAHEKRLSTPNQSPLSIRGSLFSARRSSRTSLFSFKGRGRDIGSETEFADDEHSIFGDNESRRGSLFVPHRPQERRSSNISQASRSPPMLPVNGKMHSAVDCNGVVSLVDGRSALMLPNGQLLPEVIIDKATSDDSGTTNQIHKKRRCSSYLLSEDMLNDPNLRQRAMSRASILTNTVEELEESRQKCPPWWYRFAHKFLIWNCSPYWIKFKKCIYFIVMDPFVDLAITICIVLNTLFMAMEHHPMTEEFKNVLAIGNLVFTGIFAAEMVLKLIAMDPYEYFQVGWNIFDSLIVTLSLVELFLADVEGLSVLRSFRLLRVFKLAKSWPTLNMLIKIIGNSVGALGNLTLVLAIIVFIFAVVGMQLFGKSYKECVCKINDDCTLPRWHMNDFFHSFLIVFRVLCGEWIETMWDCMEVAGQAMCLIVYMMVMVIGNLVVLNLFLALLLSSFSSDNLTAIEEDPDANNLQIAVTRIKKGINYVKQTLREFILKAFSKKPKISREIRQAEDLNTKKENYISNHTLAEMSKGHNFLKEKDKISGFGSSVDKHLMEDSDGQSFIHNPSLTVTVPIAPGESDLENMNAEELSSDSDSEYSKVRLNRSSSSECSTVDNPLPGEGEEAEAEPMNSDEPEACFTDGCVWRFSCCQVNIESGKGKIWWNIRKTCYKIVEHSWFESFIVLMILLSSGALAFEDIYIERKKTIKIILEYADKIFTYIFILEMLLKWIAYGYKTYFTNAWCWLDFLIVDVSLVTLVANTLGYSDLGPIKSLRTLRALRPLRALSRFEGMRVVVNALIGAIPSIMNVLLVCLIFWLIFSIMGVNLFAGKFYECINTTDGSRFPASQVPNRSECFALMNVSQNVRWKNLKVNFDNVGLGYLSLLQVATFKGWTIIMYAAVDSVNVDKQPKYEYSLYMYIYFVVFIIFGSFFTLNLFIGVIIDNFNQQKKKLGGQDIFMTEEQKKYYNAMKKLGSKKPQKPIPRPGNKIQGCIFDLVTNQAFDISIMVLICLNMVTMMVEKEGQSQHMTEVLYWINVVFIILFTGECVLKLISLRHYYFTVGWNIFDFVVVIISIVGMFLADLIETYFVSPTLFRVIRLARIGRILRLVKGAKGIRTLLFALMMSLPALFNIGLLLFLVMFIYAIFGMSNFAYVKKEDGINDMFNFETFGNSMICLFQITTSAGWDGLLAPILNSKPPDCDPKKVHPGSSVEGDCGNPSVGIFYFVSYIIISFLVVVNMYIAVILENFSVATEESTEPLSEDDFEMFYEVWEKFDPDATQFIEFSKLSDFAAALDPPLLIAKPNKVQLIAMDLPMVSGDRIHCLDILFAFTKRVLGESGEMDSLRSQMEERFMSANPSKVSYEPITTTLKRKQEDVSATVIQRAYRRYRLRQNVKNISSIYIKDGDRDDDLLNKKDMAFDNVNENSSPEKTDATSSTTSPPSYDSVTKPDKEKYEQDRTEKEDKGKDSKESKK
The experiment can be described thus: Nav1.7 (hSCN9A) PatchXpress electrophysiology assay. In kind it is cell-based. Particulars: estimated IC50 from single point electrophysiology data; PatchXpress platform; HEK cells expressing hSCN9A, held at V1/2 of inactivation; read-out: Nav1.7 EIC50. As for the experimental part: The ability of the compounds of formula (I) to block the Nav1.7 (or SCN9A) channel were measured using the assay described below.
Human Embryonic Kidney (HEK) cells were transfected with an hSCN9A construct using lipofectamine reagent (Invitrogen), using standard techniques. Cells stably expressing the hSCN9A constructs were identified by their resistance to G-418 (400 μg/ml). Clones were screened for expression using the whole-cell voltage-clamp technique.
HEK cells stably transfected with hSCN9A were maintained in DMEM medium supplemented with 10% heat-inactivated fetal bovine serum and 400 μg/ml G-418 in an incubator at 37° C. with a humidified atmosphere of 10% CO2. For HTS, cells were harvested from flasks by trypsinization and replated in an appropriate multi-well plate (typically 96 or 384 wells/plate) such that confluence would be achieved within 24 hours of plating. For electrophysiological studies, cells were removed from the culture flask by brief trypsinization and re-plated at low density onto glass cover slips. Cells were typically used for electrophysiological experiments within 24 to 72 hours after plating.
Cover slips containing HEK cells expressing hSCN9A were placed in a bath on the stage of an inverted microscope and perfused (approximately 1 ml/minutes) with extracellular solution of the following composition: 138 mM NaCl, 2 mM CaCl2, 5.4 mM KCl, 1mM MgCl2, 10 mM glucose, and 10 mM HEPES, pH 7.4, with NaOH. […] The osmolarity of the extracellular and intracellular solutions was 300 mOsm/kg and 295 mOsm/kg, respectively. All recordings were made at room temperature (22-24° C.) using AXOPATCH 200B amplifiers and PCLAMP software (Axon Instruments, Burlingame, Calif.).
hSCN9A currents in HEK cells were measured using the whole-cell configuration of the patch-clamp technique (Hamill et al., 1981). Uncompensated series resistance was typically 2 to 5 mega ohms and >85% series resistance compensation was routinely achieved. As a result, voltage errors were negligible and no correction was applied. Current records were acquired at 20 to 50 KHz and filtered at 5 to 10 KHz.
HEK cells stably transfected with hSCN9A were viewed under Hoffman contrast optics and placed in front of an array of flow pipes emitting either control or compound-containing extracellular solutions. All compounds were dissolved in dimethyl sulfoxide to make 10 mM stock solutions, which were then diluted into extracellular solution to attain the final concentrations desired. […] The voltage-dependence of inactivation was determined by applying a series of depolarizing prepulses (8 sec long in 10 mV increments) from a negative holding potential. The voltage was then immediately stepped to 0 mV to assess the magnitude of the sodium current. Currents elicited at 0 mV were plotted as a function of prepulse potential to allow estimation of the voltage at which 50% of the channels were inactivated (midpoint of inactivation or V1/2). Compounds were tested for their ability to inhibit hSCN9A sodium channels by activating the channel with a 20 msec voltage step to 0 mV following an 8 second conditioning prepulse to the empirically determined V1/2. Compound effect (% inhibition) was determined by difference in current amplitude before and after application of test compounds. For ease of comparison, “estimated IC-50” (EIC50) values were calculated from single point electrophysiology data by the following equation, (tested concentration, uM)×(100-% inhibition/% inhibition). Inhibition values <20% and >80% were excluded from the calculation.
Electrophysiological assays were conducted with PatchXpress 7000 hardware and associated software (Molecular Devices Corp). All assay buffers and solutions were identical to those used in conventional whole-cell voltage clamp experiments described above. hSCN9A cells were grown as above to 50%-80% confluency and harvested by trypsinization. […]
Regarding `CN(C)S(=O)(=O)NC(=O)c1ccc(Oc2ccc(Cl)c(C(F)(F)F)c2)cc1` [Example 1, 4-[4-Chloro-3-(trifluoromethyl)phenoxy]-N-[(dimethylamino)sulfonyl]benzamide diethylamine salt], the IC50 was 2600 nM.

`CC(C)COc1ncc(Oc2cc(F)c(C(=O)NS(=O)(=O)N(C)C)cc2F)cc1Cl` [Example 2, 4-[(5-Chloro-6-isobutoxvpvridin-3yl)oxy]-N-[(dimethylamino)sulfonyl]2,5-difluorobenzamide diethylamine salt]: the IC50 was 130 nM.

`CNS(=O)(=O)NC(=O)c1ccc(Oc2ccc(Cl)c(C(F)(F)F)c2)cc1` [Example 3, 4-[4-chloro-3-(trifluoromethyl)phenoxy]-N-[(methylamino)sulfonyl]benzamide diethylamine salt]: the IC50 was 4800 nM.

Take `COc1cc(Cl)ccc1Oc1ccc(C(=O)NS(N)(=O)=O)cc1` [Example 4, N-(aminosulfonyl)-4-(4-chloro-2-methoxyphenoxy)benzamide]: the IC50 was above 3000 nM.

On to `COc1cc(Cl)ccc1Oc1ccc(C(=O)NS(=O)(=O)N(C)C)cc1` [Example 5, 4-(4-chloro-2-methoxyphenoxy)-N-[(dimethylamino)sulfonyl]benzamide], for which the IC50 was 7100 nM.

As for `COc1cc(Cl)ccc1Oc1cc(F)c(C(=O)NS(N)(=O)=O)cc1F` [Example 6, N-(aminosulfonyl)-4-(4-chloro-2-methoxvphenoxy)-2,5-difluorobenzamide], the IC50 is 7300 nM.

In the case of `COc1cc(Cl)ccc1Oc1cc(F)c(C(=O)NS(=O)(=O)N(C)C)cc1F` [Example 7, 4-(4-chloro-2-methoxvphenoxy)-N-[(dimethylamino)sulfonyl]-2,5-difluorobenzamide], the IC50 was above 3000 nM.

`COc1ccccc1Oc1ccc(C(=O)NS(=O)(=O)N(C)C)cc1` [Example 8, N-[(dimethylamino)sulfonyl]-4-(2-methoxyphenoxy)benzamide diethylamine salt]: the IC50 is above 30000 nM.

For the compound `COc1cccc(Oc2ccc(C(=O)NS(=O)(=O)N(C)C)cc2)c1` [Example 9, N-[(dimethylamino)sulfonyl[-4-(3-methoxyphenoxy)benzamidediethylamine salt], the IC50 was above 30000 nM.

Turning to `CC(C)COc1ncc(Oc2ccc(C(=O)NS(N)(=O)=O)cc2)cc1Cl` [Example 10, N-(aminosulfonyl)-4-[(5-chloro-6-isobutoxypyridin-3-yl)oxy]benzamide diethylamine salt], the IC50 is 6300 nM.

Take `CC(C)COc1ncc(Oc2ccc(C(=O)NS(=O)(=O)N(C)C)cc2)cc1Cl` [Example 11, 4-[(5-chloro-6-isobutoxypyridin-3-yl)oxy]-N-[(dimethylamino)sulfonyl]benzamide diethylamine salt]: the IC50 is 2100 nM.

For `COc1ccccc1Oc1cc(F)c(C(=O)NS(=O)(=O)N(C)C)cc1Cl` [Example 12, 5-chloro-N-[(dimethylamino)sulfonyl]-2-fluoro-4-(2-methoxyphenoxy)benzamide diethylamine salt], the IC50 is above 1000 nM.

Turning to `COc1ccccc1Oc1cc(F)c(C(=O)NS(=O)(=O)N(C)C)cc1F` [Example 13, N-[(dimethylamino)sulfonyl]-2,5-difluoro-4-(2-methoxyphenoxy)benzamide], the IC50 was above 1000 nM.

Take `COc1cccc(Oc2cc(F)c(C(=O)NS(=O)(=O)N(C)C)cc2F)c1` [Example 14, N-[(dimethylamino)sulfonyl]-2,5-difluoro-4-(3-methoxyphenoxy)benzamide diethylamine salt]: the IC50 was 7500 nM.

Consider `NS(=O)(=O)NC(=O)c1ccc(Oc2ccc(Cl)cc2-c2ccnnc2)cc1` [Example 15, N-(aminosulfonyl)-4-(4-chloro-2-pyridazin-4-ylphenoxy)benzamide], for which the IC50 was above 3000 nM.

`CN(C)S(=O)(=O)NC(=O)c1ccc(Oc2ccc(Cl)cc2-c2ccnnc2)cc1` [Example 16, 4-(4-chloro-2-pyridazin-4-ylphenoxy)-N-[(dimethylamino)sulfonyl]benzamide]: the IC50 was 4900 nM.

Turning to `[2H]C([2H])([2H])C([2H])(Oc1ncc(Oc2cc(F)c(C(=O)NS(=O)(=O)N(C)C)cc2F)cc1Cl)C([2H])([2H])[2H]` [Example 17, 4-[(5-chloro-6-isopropoxypyridin-3-yl)oxy]-N-[(dimethylamino)sulfonyl]-2,5-difluorobenzamide-d7], the IC50 is 200 nM.

For `N#Cc1cc(C(=O)NS(N)(=O)=O)ccc1Oc1ccccc1-c1ccccc1` [Example 18, N-(aminosulfonyl)-4-(biphenyl-2-yloxy)-3-cyanobenzamide diethylamine salt], the IC50 is 34000 nM.

Turning to `CCNS(=O)(=O)NC(=O)c1ccc(Oc2ccccc2-c2ccccc2)c(C#N)c1` [Example 19, 4-(biphenyl-2-yloxy)-3-cyano-N-[(ethylamino)sulfonyl]benzamide diethylamine salt], the IC50 is 10000 nM.

Turning to `CN(C)S(=O)(=O)NC(=O)c1cc(F)c(Oc2cnc(N3CCC(F)C3)c(Cl)c2)cc1F` (stereo not drawn) [Example 20, 4-{[5-chloro-6-(3-fluoropyrrolidin-1-yl)pyridine-3-yl]oxy}-N-[(dimethylamino)sulfonyl]-2,5-difluorobenzamide formate salt], the IC50 was 1200 nM.

As to `CN(C)S(=O)(=O)NC(=O)c1cc(F)c(Oc2cnc(NCC3CC3)c(Cl)c2)cc1F` [Example 21, 4-({5-chloro-6-[(cyclopropylmethyl)amino]pyridine-3-yl}oxy)-N-[(dimethylamino)sulfonyl]-2,5-difluorobenzamide formate salt], the IC50 is 600 nM.

On to `CN(C)c1ncc(Oc2cc(F)c(C(=O)NS(=O)(=O)N(C)C)cc2F)cc1Cl` [Example 22, 4-{[5-chloro-6-(dimethylamino)pyridine-3-yl]oxy}-N-[(dimethylamino)sulfonyl]-2,5-difluorobenzamide formate salt], for which the IC50 was 2500 nM.

As to `CN(CC1CC1)c1ncc(Oc2cc(F)c(C(=O)NS(=O)(=O)N(C)C)cc2F)cc1Cl` [Example 23, 4-({5-chloro-6-[(cyclopropylmethyl)(methyl)amino]pyridine-3-yl}oxy)-N-[(dimethylamino)sulfonyl]-2,5-difluorobenzamide formate salt], the IC50 was 670 nM.

As to `CC(C)N(C)c1ncc(Oc2cc(F)c(C(=O)NS(=O)(=O)N(C)C)cc2F)cc1Cl` [Example 24, 4-({5-chloro-6-[isopropyl(methyl)amino]pyridine-3-yl}oxy)-N-[(dimethylamino)sulfonyl]-2,5-difluorobenzamide formate salt], the IC50 was 660 nM.

Take `CNc1ncc(Oc2cc(F)c(C(=O)NS(=O)(=O)N(C)C)cc2F)cc1Cl` [Example 25, 4-{[5-chloro-6-(methylamino)pyridine-3-yl]oxy}-N-[(dimethylamino)sulfonyl]-2,5-difluorobenzamide formate salt]: the IC50 was 9800 nM.

As to `CN(C)S(=O)(=O)NC(=O)c1cc(F)c(Oc2cnc(N3CCCC3)c(Cl)c2)cc1F` [Example 26, 4-[(5-chloro-6-pyrrolidin-1-ylpyridin-3-yl)oxy]-N-[(dimethylamino)sulfonyl]-2,5-difluorobenzamide formate salt], the IC50 is 480 nM.

As to `CN(C)S(=O)(=O)NC(=O)c1cc(F)c(Oc2cnc(NC34CC(C3)C4)c(Cl)c2)cc1F` [Example 28, 4-{[6-(pyridin[1.1.1]pent-1-ylamino)-5-chloropyridin-3-yl]oxy}-N-[(dimethylamino)sulfonyl]-2,5-difluorobenzamide formate salt], the IC50 was 160 nM.
